Reference: PubChem BioAssay (NCI)
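Cultured in 96-well plates, cells were exposed to test compound for 48 hours across five concentrations. Abbreviation: GI50, concentration required for 50% inhibition of growth. TGI denotes the concentration required for complete inhibition of growth.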

Assays:
Assay in all cases: inhibition of tumour cell growth, NCI panel, 48 h
786-0 renal = test system: 786-0 renal
COLO 205 colon = test system: COLO 205 colon
MDA-MB-231 breast = test system: MDA-MB-231 breast
NCI/ADR-RES ovarian = test system: NCI/ADR-RES ovarian
RPMI-8226 leukemia = test system: RPMI-8226 leukemia
SF-268 CNS = test system: SF-268 CNS
SF-295 CNS = test system: SF-295 CNS
SR leukemia = test system: SR leukemia
U251 CNS = test system: U251 CNS
UACC-62 melanoma = test system: UACC-62 melanoma
UO-31 renal = test system: UO-31 renal
BT-549 breast = test system: BT-549 breast

| Compound | TGI (786-0 renal) | TGI (COLO 205 colon) | TGI (MDA-MB-231 breast) | TGI (NCI/ADR-RES ovarian) | TGI (RPMI-8226 leukemia) | TGI (SF-268 CNS) | TGI (SF-295 CNS) | TGI (SR leukemia) | TGI (U251 CNS) | TGI (UACC-62 melanoma) | TGI (UO-31 renal) | TGI (BT-549 breast) | GI50 (SF-268 CNS) | GI50 (UO-31 renal) | GI50 (NCI/ADR-RES ovarian) | GI50 (SF-295 CNS) | GI50 (UACC-62 melanoma) |
| --- | --- | --- | --- | --- | --- | --- | --- | --- | --- | --- | --- | --- | --- | --- | --- | --- | --- |
| CC(=O)Oc1ccc2c(C)cc(=O)oc2c1OC(C)=O | > 100 µM | > 100 µM | > 100 µM | 78.6 µM | 89.9 µM | > 100 µM | > 100 µM | > 100 µM | > 100 µM | > 100 µM | 76.9 µM |  |  |  |  |  |  |
| Cc1cc2oc(=N)c(C#N)c(C)c2cc1C | > 100 µM | > 100 µM | > 100 µM | > 100 µM | > 100 µM | > 100 µM | > 100 µM |  | > 100 µM | > 100 µM | > 100 µM | > 100 µM |  |  |  |  |  |
| Cc1cc(S(=O)(=O)Nc2n[nH]c(N)n2)c(SCC(=O)O)cc1Cl | > 10 µM | > 10 µM |  | > 10 µM | > 10 µM | > 10 µM | > 10 µM | > 10 µM | > 10 µM |  | > 10 µM | > 10 µM |  |  |  |  |  |
| O=c1c(/C=C/c2c(O)ccc3ccccc23)nnc2sc(-c3cccc(Br)c3)nn12 | > 100 µM | > 100 µM |  | 88.4 µM | > 100 µM | > 100 µM | > 100 µM | 41.1 µM | > 100 µM | 68.6 µM | 69.6 µM | 56.7 µM |  |  |  |  |  |
| CN(C)CCC(=O)c1ccccc1 | 44.2 µM | > 57.2 µM |  |  | > 100 µM | > 74.7 µM | > 100 µM | 57.4 µM | > 69.4 µM | > 68.1 µM | > 68.8 µM |  |  |  |  |  |  |
| S=C(S)NCNC(=S)S.[Zn+2] | > 100 µM | > 100 µM | > 100 µM | > 100 µM | > 100 µM | > 100 µM | > 100 µM |  | > 100 µM | > 100 µM | > 100 µM |  |  |  |  |  |  |
| CN(C)C1(N(C)C)Oc2c(c(=O)n(C)c(=O)n2C)C(c2ccccc2)C1(F)F (stereo not given) | > 100 µM | > 100 µM | > 100 µM | > 100 µM | > 100 µM | > 100 µM | > 100 µM |  | > 100 µM | > 100 µM | > 100 µM | > 100 µM |  |  |  |  |  |
| Cc1nc2c(nc1C)-c1[nH]c3c(c1C(=O)C2=O)CCCC3=O | 7.34 µM | 7.93 µM | 3.4 µM | 6.47 µM | 3.22 µM | 2.9 µM | 3.31 µM | 6.4 µM | 2.92 µM | 3.25 µM | 10.3 µM |  |  |  |  |  |  |
| C=C(C)[C@@H]1CC[C@]2(C(=O)NC3CCCCC3)CC[C@]3(C)[C@H](CC[C@@H]4[C@@]5(C)CCCNC(C)(C)[C@@H]5CC[C@]43C)[C@@H]12 |  |  |  |  |  | 26 µM |  |  |  |  | 2.73 µM |  | 5.29 µM | 1.42 µM |  |  |  |
| Oc1[nH]c2ccccc2c1N=NC(=S)Nc1cccc(Cl)c1 | 27.6 µM | > 100 µM | 52.3 µM | 8 µM |  | > 100 µM | 29.2 µM | 9.71 µM | 89.1 µM | 29 µM | > 100 µM |  |  |  |  |  |  |
| N#Cc1c(N)n(-c2cccc(C(=O)O)c2)c(=O)c2cc([N+](=O)[O-])ccc12 | > 100 µM | > 100 µM | > 100 µM | > 100 µM | > 100 µM | > 100 µM |  |  | > 100 µM | > 100 µM | > 100 µM | > 100 µM |  |  |  |  |  |
| CCC(C)OC(=O)/C(Br)=C1/OC(=O)c2ccccc2-c2ccccc21 (stereo not given) | > 100 µM | 38.1 µM |  | 71.4 µM | 87.9 µM | > 100 µM | > 100 µM |  |  | 57.5 µM | 73 µM | 37.1 µM |  |  |  |  |  |
| COC(=O)c1cc2ccc(N)nc2[nH]c1=O | > 100 µM | > 100 µM | > 100 µM | > 100 µM | > 100 µM | > 100 µM | > 100 µM |  | > 100 µM |  | > 100 µM | > 100 µM |  |  |  |  |  |
| O=C(Cn1c[n+](CC(=O)c2ccc(-c3ccccc3)cc2)c2ccccc21)Nc1cccc2cccnc12 |  |  |  | 64.8 µM |  |  | 3.26 µM |  |  | 2.84 µM | 33.3 µM |  |  | 14.2 µM | 18.7 µM | 1.73 µM | 1.4 µM |
| CCOC(=O)NC(Nc1ccc(S(=O)(=O)Nc2nc(C)cc(C)n2)cc1)(C(=O)OCC)C(F)(F)F (stereo not given) | > 100 µM | > 100 µM | > 100 µM |  | > 100 µM | > 100 µM | > 100 µM | 27.4 µM | > 100 µM | > 100 µM | > 100 µM | > 100 µM |  |  |  |  |  |
| COc1ccc(P2(=S)OC(C)(C)C(C)(C)O2)cc1 | > 100 µM |  | > 100 µM | > 100 µM |  |  | > 100 µM | > 100 µM | > 100 µM | > 100 µM | > 100 µM |  |  |  |  |  |  |
| C[C@H](CCC(=O)O)[C@H]1CC[C@H]2[C@@H]3CC[C@@H]4C[C@H](O)CC[C@]4(C)[C@H]3C[C@H](O)[C@]12C | > 100 µM | 61.8 µM | > 100 µM | > 100 µM | 57.6 µM | > 100 µM | 38.9 µM |  | > 100 µM | > 100 µM | > 100 µM | > 100 µM |  |  |  |  |  |
| CCCCNC(=S)Nc1nc(C(=O)NNC(=S)Nc2ccccc2)cs1 | > 100 µM | > 100 µM | 87.2 µM | > 100 µM | > 100 µM | > 100 µM | > 100 µM |  | 48.3 µM | > 100 µM | > 100 µM | > 100 µM |  |  |  |  |  |
| COC(=O)C1=C(C(=O)NNc2ccccc2)N(c2cccnc2Cl)C(c2ccccc2)=CC1c1ccccc1 (stereo not given) | > 100 µM | > 100 µM | > 100 µM |  | 82.8 µM | > 100 µM | 56 µM | > 100 µM | > 100 µM | > 100 µM |  | > 100 µM |  |  |  |  |  |
| COc1ccc(C(OCC2OC(n3cc(C)c(=O)[nH]c3=O)CC2n2cc(Cn3cc(Cl)c(=O)[nH]c3=O)nn2)(c2ccccc2)c2ccccc2)cc1 (stereo not given) | > 100 µM | > 100 µM | > 100 µM | > 100 µM | > 100 µM | > 100 µM | > 100 µM |  | > 100 µM | > 100 µM | > 100 µM | > 100 µM |  |  |  |  |  |
| CC(OC(C)(C)C)[C@H](NC(=O)OCC(Cl)(Cl)Cl)C(=O)O (stereo not given in full) |  | > 100 µM |  |  | > 100 µM | > 100 µM | > 100 µM | > 100 µM | > 100 µM | > 100 µM | > 100 µM |  |  |  |  |  |  |
